Assay results taken from patent US11292786B2, “Pyrimidine compounds and pharmaceutical compositions for preventing or treating cancers including the same” (HANMI PHARM. CO., LTD., priority 2018, dated 2022).

What was measured:
[1] = Microsomal stability, human liver microsomes; type: in vitro ADME; conditions: residual amount % after 1 hour at 37° C., 5 μM, 1 mg/ml human liver microsomes, NADPH regenerating system
Experimental: To confirm the reactivity of the test substances with intra-hepatic CYP450 enzymes, 5 μM test substances and 1 mg/ml human liver microsomes were incubated for 1 hour at a temperature of 37° C. in the presence of an NADPH regenerating system. After 1 hour, acetonitrile was added to terminate the reaction, and the supernatant obtained by centrifugation was analyzed by HPLC. The remaining amount % was calculated using the following equation using the value of the reacted sample for 1 hour relative to the value of the 0-minute sample as the peak value obtained as an analysis result. (Peak value of the sample reacted for 1 hour/peak value of the sample at 0 minutes)×100=residual amount %.

[2] = Microsomal stability, mice microsomes; type: in vitro ADME; conditions: residual amount % after 1 hour at 37° C., 5 μM, NADPH regenerating system

Row | Human microsomal stability (%) [1] | Mice microsomal stability (%) [2] | SMILES
1 | 49% | 29% | CCN(CC)C1CCN(c2cc(Nc3ncc(Cl)c(-c4c[nH]c5cc(C)ccc45)n3)cc(C3CC3)c2)CC1 [Control Compound 6]
2 | 72% | 69% | Cc1ccc2c(-c3nc(Nc4cc(CN5C[C@@H](C)NC6(CC6)C5)cc(C5CC5)c4)ncc3Cl)c[nH]c2c1 [Example 27, (R)-5-chloro-N-(3-cyclopropyl-5-((5-methyl-4,7-diazaspiro[2.5]octan-7-yl)methyl)phenyl)-4-(6-methyl-1H-indole-3-yl)pyrimidine-2-amine]
